Data as given in US9428542B2, “Lupane triterpenoid derivatives and pharmaceutical use thereof” (priority 2012, dated 2016).
pIC50: −log10 of the molar value.

Columns and labels:
MT-2 cells = experiment: Compounds' cytotoxicity assay in MT-2 cells (CellTiter-Glo); format: cell-based; design: unit not given here; conditions: toxicity in MT-2 cells, 3 days
Protocol: 3. Method for Compounds' Cytotoxicity Assay:
The MT-2 cells are diluted to a needed concentration. 90 μl of the MT-2 cells suspension was added into 384-well plates containing 10 μl of the tested compounds. Compounds were dissolved in DMSO and tested as 11 points 3-fold serial dilutions. After addition of cells to compound plates, plates were placed to humidified 5% CO2 37 incubator for 3 days. The Luciferase activity was measured by CellTiter-Glo® Luminescent Cell Viability Assay kit (Promega Corp., WI, USA).
(§1) TC50 is referred to the toxicity in MT-2 cells by the compounds tested at 50% concentration; IC50 is referred to the inhibiting HIV-1IIIB replication in MT-2 cells by the compounds tested at 50% concentration; Therapeutic Index (TI)=TC50/IC50.

HIV-1IIIB = experiment: HIV-1 full replication assay (HIV-1IIIB-infected MT-2 cells, supernatant read out on TZM-bl cells, β-Gal); format: cell-based; conditions: inhibiting HIV-1IIIB replication in MT-2 cells, 3 days; for pIC50: Human immunodeficiency virus 1, MT2, 72 h, read-out: IC50 (PM)
Protocol: The antiviral activity of the compounds of the present invention was determined in a HIV-1 full replication assay.
In this assay, MT-2 cells that are infected with HIV-1IIIB were co-cultured with different concentration of the tested compounds for 3 days and then supernatant is transferred into new 384-well plates containing TZM-bl cells (also called JC53-bl). TZM-bl cells that could be infected by various kinds of HIV-1 strains stably express a great amount of HIV-1 receptor, co-receptor CD4 molecular, and co-receptor CXCR4 and CCR5. TZM-bl cells harbor LTR-luciferase and β-gal two report genes. The expression of luciferase and β-gal reporter directed by HIV-1 LTR can be activated by Tat protein generated after HIV infection, and the quantity of expression is proportional to the quantity of HIV-1. Compounds that interfere with virus replication in MT-2 cells, maturation of the virus, or post-entry steps in the HIV lifecycle decrease the luciferase signal or β-gal signal. In this experiment, BVM (Bevirimat, PA-457) is used as a positive control drug.
Method for Inhibiting HIV-1 Replication Assay:
The MT-2 cells are infected at a Multiciplicity (MOI) of 0.01 TCID50, and then the MT-2 cells suspension was diluted to a needed concentration. 90 μl of the MT-2 cells suspension from above was added into 384-well plates containing 10 μl of the tested compounds.
Compounds were dissolved in DMSO and tested as 11 points 3-fold serial dilutions. After addition of cells to compound plates, plates were placed to humidified 5% CO2 37 incubator for 3 days. 10 μl of cells culture supernatant from the incubated plates was transferred into new black 384-well plates.
Adjusted the TZMb1 cells concentration and 40 μl of TZMb1 cells was added into each well in the black 384-well plates. After addition of the TZMb1 cells to the black plates, black plates were placed to humidified 5% CO2 37 incubator for 24 h, then β-Gal activity was measured.
The anti viral activity %=(measured number-lowest mean number)/(highest mean number-lowest mean number)×100. The IC50 values were calculated by Median Equation and the IC curve was generated by Graphpad Prism V 5.03.
as §1

CC(C)C1=C2[C@H]3CC[C@@H]4[C@@]5(C)CC[C@H](OC(=O)CC(C)(C)C(=O)O)C(C)(C)[C@@H]5CC[C@@]4(C)[C@]3(C)CC[C@@]2(c2nnc(-c3cccnc3)o2)CC1=O [Compound 27-9]
TC50 (PM) (MT-2 cells): 200
pIC50 (HIV-1IIIB): 8.06

CC(C)C1=C2[C@H]3CC[C@@H]4[C@@]5(C)CC[C@H](OC(=O)CC(C)(C)C(=O)O)C(C)(C)[C@@H]5CC[C@@]4(C)[C@]3(C)CC[C@@]2(c2nnc(-c3ccc(C(F)(F)F)cn3)o2)CC1=O [Compound 27-11]
TC50 (PM) (MT-2 cells): 23
pIC50 (HIV-1IIIB): 7.60

CC(C)C1=C2[C@H]3CC[C@@H]4[C@@]5(C)CC[C@H](OC(=O)CC(C)(C)C(=O)O)C(C)(C)[C@@H]5CC[C@@]4(C)[C@]3(C)CC[C@@]2(c2nnc(-c3ccncc3)o2)CC1=O [Compound 27-13]
TC50 (PM) (MT-2 cells): 200
pIC50 (HIV-1IIIB): 7.77

CC(C)C1=C2[C@H]3CC[C@@H]4[C@@]5(C)CC[C@H](OC(=O)CC(C)(C)C(=O)O)C(C)(C)[C@@H]5CC[C@@]4(C)[C@]3(C)CC[C@@]2(c2nnc(-c3ncc(Cl)cn3)o2)CC1=O [Compound 27-14]
TC50 (PM) (MT-2 cells): 46
pIC50 (HIV-1IIIB): 8.31

CC(C)C1=C2[C@H]3CC[C@@H]4[C@@]5(C)CC[C@H](OC(=O)CC(C)(C)C(=O)O)C(C)(C)[C@@H]5CC[C@@]4(C)[C@]3(C)CC[C@@]2(Cc2nnc(Cc3ccc(Cl)cc3)o2)CC1=O [Compound 33]
TC50 (PM) (MT-2 cells): 18
pIC50 (HIV-1IIIB): 8.80

CC(C)C1=C2[C@H]3CC[C@@H]4[C@@]5(C)CC[C@H](OC(=O)CC(C)(C)C(=O)O)C(C)(C)[C@@H]5CC[C@@]4(C)[C@]3(C)CC[C@@]2(c2nnc(Cc3ccc(Cl)cc3)o2)CC1=O [Compound 38]
TC50 (PM) (MT-2 cells): 100
pIC50 (HIV-1IIIB): 8.80

CC(C)C1=C2[C@H]3CC[C@@H]4[C@@]5(C)CC[C@H](OC(=O)CC(C)(C)C(=O)O)C(C)(C)[C@@H]5CC[C@@]4(C)[C@]3(C)CC[C@@]2(c2ncc(-c3ccc(Cl)cc3)o2)CC1=O [Compound 65]
TC50 (PM) (MT-2 cells): 17.68
pIC50 (HIV-1IIIB): 7.24

CC(C)C1=C2[C@H]3CC[C@@H]4[C@@]5(C)CC[C@H](OC(=O)CC(C)(C)C(=O)O)C(C)(C)[C@@H]5CC[C@@]4(C)[C@]3(C)CC[C@@]2(c2cnc(-c3ccc(Cl)cc3)o2)CC1=O [Compound 77]
TC50 (PM) (MT-2 cells): 200
pIC50 (HIV-1IIIB): 6.80

CC(C)C1=C2[C@H]3CC[C@@H]4[C@@]5(C)CC[C@H](OC(=O)CC(C)(C)C(=O)O)C(C)(C)[C@@H]5CC[C@@]4(C)[C@]3(C)CC[C@@]2(c2cc(=O)n(Cc3ccccc3)n2C)CC1 [Compound 89-2]
TC50 (PM) (MT-2 cells): 37
pIC50 (HIV-1IIIB): 7.23

CC(C)C1=C2[C@H]3CC[C@@H]4[C@@]5(C)CC[C@H](OC(=O)CC(C)(C)C(=O)O)C(C)(C)[C@@H]5CC[C@@]4(C)[C@]3(C)CC[C@@]2(c2cc(=O)n(CC(=O)O)n2C)CC1=O [Compound 91-5]
TC50 (PM) (MT-2 cells): 160
IC50 (PM) (HIV-1IIIB): 2110 nM

CC(C)C1=C2[C@H]3CC[C@@H]4[C@@]5(C)CC[C@H](OC(=O)CC(C)(C)C(=O)O)C(C)(C)[C@@H]5CC[C@@]4(C)[C@]3(C)CC[C@@]2(c2cc(=O)n(CC(N)=O)n2C)CC1=O [Compound 91-6]
TC50 (PM) (MT-2 cells): 48
pIC50 (HIV-1IIIB): 8.70

CNC(=O)Cn1c(=O)cc([C@@]23CC[C@]4(C)[C@H](CC[C@@H]5[C@@]6(C)CC[C@H](OC(=O)CC(C)(C)C(=O)O)C(C)(C)[C@@H]6CC[C@]54C)C2=C(C(C)C)C(=O)C3)n1C [Compound 91-7]
TC50 (PM) (MT-2 cells): 68
pIC50 (HIV-1IIIB): 9.15

CC(C)C1=C2[C@H]3CC[C@@H]4[C@@]5(C)CC[C@H](OC(=O)CC(C)(C)C(=O)O)C(C)(C)[C@@H]5CC[C@@]4(C)[C@]3(C)CC[C@@]2(c2cc(=O)n(CC(=O)N(C)C)n2C)CC1=O [Compound 91-8]
TC50 (PM) (MT-2 cells): 48
pIC50 (HIV-1IIIB): 8.48

CC(C)C1=C2[C@H]3CC[C@@H]4[C@@]5(C)CC[C@H](OC(=O)CC(C)(C)C(=O)O)C(C)(C)[C@@H]5CC[C@@]4(C)[C@]3(C)CC[C@@]2(c2cc(=O)n(Cc3ccc(Cl)cn3)n2C)CC1=O [Compound 91-9]
TC50 (PM) (MT-2 cells): 26
pIC50 (HIV-1IIIB): ≥ 9.77

CC(C)C1=C2[C@H]3CC[C@@H]4[C@@]5(C)CC[C@H](OC(=O)CC(C)(C)C(=O)O)C(C)(C)[C@@H]5CC[C@@]4(C)[C@]3(C)CC[C@@]2(c2cc(=O)n(-c3ccc(Cl)cc3)n2C)CC1 [Compound 96-1]
TC50 (PM) (MT-2 cells): 17
pIC50 (HIV-1IIIB): 7.48

CC(C)C1=C2[C@H]3CC[C@@H]4[C@@]5(C)CC[C@H](OC(=O)CC(C)(C)C(=O)O)C(C)(C)[C@@H]5CC[C@@]4(C)[C@]3(C)CC[C@@]2(c2cc(=O)n(-c3ccc(Cl)cc3)n2C)CC1=O [Compound 98-1]
TC50 (PM) (MT-2 cells): 24
pIC50 (HIV-1IIIB): 8.80

COc1ccc(-n2c(=O)cc([C@@]34CC[C@]5(C)[C@H](CC[C@@H]6[C@@]7(C)CC[C@H](OC(=O)CC(C)(C)C(=O)O)C(C)(C)[C@@H]7CC[C@]65C)C3=C(C(C)C)C(=O)C4)n2C)cn1 [Compound 98-2]
TC50 (PM) (MT-2 cells): 44
pIC50 (HIV-1IIIB): 8.52

CC(C)C1=C2[C@H]3CC[C@@H]4[C@@]5(C)CC[C@H](OC(=O)CC(C)(C)C(=O)O)C(C)(C)[C@@H]5CC[C@@]4(C)[C@]3(C)CC[C@@]2(c2cc(=O)n(-c3ccc(F)cc3)n2C)CC1=O [Compound 98-3]
TC50 (PM) (MT-2 cells): 42
pIC50 (HIV-1IIIB): 9.34

CC(C)C1=C2[C@H]3CC[C@@H]4[C@@]5(C)CC[C@H](OC(=O)CC(C)(C)C(=O)O)C(C)(C)[C@@H]5CC[C@@]4(C)[C@]3(C)CC[C@@]2(c2cc(=O)n(-c3ccc(C#N)cc3)n2C)CC1=O [Compound 98-4]
TC50 (PM) (MT-2 cells): 36
pIC50 (HIV-1IIIB): 9.09

CCn1c([C@@]23CC[C@]4(C)[C@H](CC[C@@H]5[C@@]6(C)CC[C@H](OC(=O)CC(C)(C)C(=O)O)C(C)(C)[C@@H]6CC[C@]54C)C2=C(C(C)C)C(=O)C3)cc(=O)n1-c1ccc(Cl)cc1 [Compound 98-5]
TC50 (PM) (MT-2 cells): 13
pIC50 (HIV-1IIIB): ≥ 9.77

CCn1c([C@@]23CC[C@]4(C)[C@H](CC[C@@H]5[C@@]6(C)CC[C@H](OC(=O)CC(C)(C)C(=O)O)C(C)(C)[C@@H]6CC[C@]54C)C2=C(C(C)C)C(=O)C3)cc(=O)n1-c1ccc(Cl)cn1 [Compound 98-6]
TC50 (PM) (MT-2 cells): 13
pIC50 (HIV-1IIIB): ≥ 9.77

CC(C)C1=C2[C@H]3CC[C@@H]4[C@@]5(C)CC[C@H](OC(=O)CC(C)(C)C(=O)O)C(C)(C)[C@@H]5CC[C@@]4(C)[C@]3(C)CC[C@@]2(c2cc(=O)n(-c3ccc(Cl)cn3)n2C)CC1=O [Compound 98-7]
TC50 (PM) (MT-2 cells): 200
pIC50 (HIV-1IIIB): ≥ 9.77

CC(C)C1=C2[C@H]3CC[C@@H]4[C@@]5(C)CC[C@H](OC(=O)CC(C)(C)C(=O)O)C(C)(C)[C@@H]5CC[C@@]4(C)[C@]3(C)CC[C@@]2(c2nnc(-c3ccc(Cl)cc3)s2)CC1=O [Compound 102]
TC50 (PM) (MT-2 cells): 9.93
pIC50 (HIV-1IIIB): 6.76

CC(C)C1=C2[C@H]3CC[C@@H]4[C@@]5(C)CC[C@H](OC(=O)CC(C)(C)C(=O)O)C(C)(C)[C@@H]5CC[C@@]4(C)[C@]3(C)CC[C@@]2(Cc2nc(-c3ccc(Cl)cc3)no2)CC1=O [Compound 108-2]
TC50 (PM) (MT-2 cells): 26
pIC50 (HIV-1IIIB): 6.80

CC(C)C1=C2[C@H]3CC[C@@H]4[C@@]5(C)CC[C@H](OC(=O)CC(C)(C)C(=O)O)C(C)(C)[C@@H]5CC[C@@]4(C)[C@]3(C)CC[C@@]2(Cc2nnc(-c3ccc(Cl)cc3)n2CCN(C)C)CC1=O [Compound 116-1]
TC50 (PM) (MT-2 cells): 35
pIC50 (HIV-1IIIB): ≥ 9.77
